One series addresses T1, Glucocorticoid receptor (Homo sapiens, UniProt P04150).
T1 sequence (P04150 whole entry): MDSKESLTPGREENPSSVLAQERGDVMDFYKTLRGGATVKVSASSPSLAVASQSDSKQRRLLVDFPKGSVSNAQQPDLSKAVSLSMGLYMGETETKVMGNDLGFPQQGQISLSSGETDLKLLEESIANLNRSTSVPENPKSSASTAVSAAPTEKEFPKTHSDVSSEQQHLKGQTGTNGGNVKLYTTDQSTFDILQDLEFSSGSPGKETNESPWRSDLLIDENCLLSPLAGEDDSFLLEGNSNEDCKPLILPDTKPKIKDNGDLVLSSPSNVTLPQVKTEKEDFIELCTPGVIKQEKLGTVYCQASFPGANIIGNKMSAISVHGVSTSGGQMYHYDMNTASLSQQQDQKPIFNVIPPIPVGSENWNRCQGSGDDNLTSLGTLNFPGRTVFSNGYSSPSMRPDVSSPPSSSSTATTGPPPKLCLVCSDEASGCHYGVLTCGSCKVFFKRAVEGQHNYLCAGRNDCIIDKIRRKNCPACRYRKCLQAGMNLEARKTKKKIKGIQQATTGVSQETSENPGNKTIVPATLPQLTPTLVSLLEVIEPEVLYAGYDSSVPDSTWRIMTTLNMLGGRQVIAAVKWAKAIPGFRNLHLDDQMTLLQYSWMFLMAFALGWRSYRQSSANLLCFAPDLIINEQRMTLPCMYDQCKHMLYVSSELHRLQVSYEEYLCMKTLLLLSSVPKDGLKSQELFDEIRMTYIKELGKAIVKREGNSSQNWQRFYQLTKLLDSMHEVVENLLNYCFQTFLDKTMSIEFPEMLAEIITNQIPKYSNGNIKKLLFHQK
The series can be described thus: Displacement of [3H]dexomethasone from GR. In general terms: Displacement assays read how much labelled ligand stays bound in the presence of the test substance.

A further series concerns the target T2, Progesterone receptor (Homo sapiens, UniProt P06401).
T2 sequence (P06401 whole entry): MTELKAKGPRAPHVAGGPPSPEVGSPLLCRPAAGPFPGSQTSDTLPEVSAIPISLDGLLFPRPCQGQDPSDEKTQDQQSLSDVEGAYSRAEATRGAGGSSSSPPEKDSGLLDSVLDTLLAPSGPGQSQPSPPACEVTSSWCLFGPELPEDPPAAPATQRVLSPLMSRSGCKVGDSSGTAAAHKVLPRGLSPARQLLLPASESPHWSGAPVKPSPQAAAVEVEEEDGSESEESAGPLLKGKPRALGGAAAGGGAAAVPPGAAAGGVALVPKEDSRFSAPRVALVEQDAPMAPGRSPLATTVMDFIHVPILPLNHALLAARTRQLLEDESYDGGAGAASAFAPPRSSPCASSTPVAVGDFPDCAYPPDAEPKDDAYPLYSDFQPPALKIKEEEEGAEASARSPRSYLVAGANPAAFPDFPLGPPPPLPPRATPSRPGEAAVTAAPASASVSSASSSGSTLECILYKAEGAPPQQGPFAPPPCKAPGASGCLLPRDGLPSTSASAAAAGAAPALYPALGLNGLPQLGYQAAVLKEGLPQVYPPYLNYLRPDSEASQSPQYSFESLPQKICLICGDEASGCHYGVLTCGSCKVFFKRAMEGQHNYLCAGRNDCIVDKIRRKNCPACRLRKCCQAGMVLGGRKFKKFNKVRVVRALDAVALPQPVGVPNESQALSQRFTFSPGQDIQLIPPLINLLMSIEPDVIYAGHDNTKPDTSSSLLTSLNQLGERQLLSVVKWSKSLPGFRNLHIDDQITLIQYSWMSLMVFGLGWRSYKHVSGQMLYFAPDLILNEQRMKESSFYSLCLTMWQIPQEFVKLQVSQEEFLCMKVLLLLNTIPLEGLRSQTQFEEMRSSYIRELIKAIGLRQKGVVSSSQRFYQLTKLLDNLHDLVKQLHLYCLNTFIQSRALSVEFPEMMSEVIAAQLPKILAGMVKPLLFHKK
The series can be described thus: Displacement of [3H]progesterone from PR.

For the next series, the target named is T3, Androgen receptor (Homo sapiens, UniProt P10275).
T3 sequence (P10275 whole entry): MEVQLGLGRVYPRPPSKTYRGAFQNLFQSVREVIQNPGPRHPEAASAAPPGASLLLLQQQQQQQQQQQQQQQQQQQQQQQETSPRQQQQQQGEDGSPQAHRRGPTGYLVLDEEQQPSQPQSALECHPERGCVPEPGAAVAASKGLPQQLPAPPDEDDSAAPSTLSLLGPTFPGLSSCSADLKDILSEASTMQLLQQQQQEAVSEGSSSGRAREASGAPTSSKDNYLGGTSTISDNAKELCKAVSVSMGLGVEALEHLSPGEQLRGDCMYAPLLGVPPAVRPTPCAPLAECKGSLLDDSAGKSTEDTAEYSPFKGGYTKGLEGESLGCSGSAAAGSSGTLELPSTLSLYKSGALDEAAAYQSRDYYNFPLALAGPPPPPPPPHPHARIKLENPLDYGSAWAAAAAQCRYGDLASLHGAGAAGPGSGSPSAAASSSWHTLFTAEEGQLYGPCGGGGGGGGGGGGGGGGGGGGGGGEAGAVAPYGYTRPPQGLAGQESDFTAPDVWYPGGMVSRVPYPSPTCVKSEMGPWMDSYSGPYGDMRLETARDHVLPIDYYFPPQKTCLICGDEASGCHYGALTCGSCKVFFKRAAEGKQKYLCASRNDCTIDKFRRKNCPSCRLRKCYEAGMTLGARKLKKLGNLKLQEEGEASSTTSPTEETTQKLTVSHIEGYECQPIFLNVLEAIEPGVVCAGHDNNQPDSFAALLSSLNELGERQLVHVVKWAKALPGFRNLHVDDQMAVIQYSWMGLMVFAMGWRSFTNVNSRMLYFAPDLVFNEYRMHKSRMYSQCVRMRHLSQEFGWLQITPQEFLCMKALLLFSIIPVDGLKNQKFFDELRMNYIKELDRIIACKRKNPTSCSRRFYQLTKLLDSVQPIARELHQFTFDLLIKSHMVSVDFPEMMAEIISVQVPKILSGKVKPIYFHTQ
The series can be described thus: Displacement of [3H]testosterone from AR.

For series [1], the target named is T4, Mineralocorticoid receptor (Homo sapiens, UniProt P08235).
T4 sequence (P08235 whole entry): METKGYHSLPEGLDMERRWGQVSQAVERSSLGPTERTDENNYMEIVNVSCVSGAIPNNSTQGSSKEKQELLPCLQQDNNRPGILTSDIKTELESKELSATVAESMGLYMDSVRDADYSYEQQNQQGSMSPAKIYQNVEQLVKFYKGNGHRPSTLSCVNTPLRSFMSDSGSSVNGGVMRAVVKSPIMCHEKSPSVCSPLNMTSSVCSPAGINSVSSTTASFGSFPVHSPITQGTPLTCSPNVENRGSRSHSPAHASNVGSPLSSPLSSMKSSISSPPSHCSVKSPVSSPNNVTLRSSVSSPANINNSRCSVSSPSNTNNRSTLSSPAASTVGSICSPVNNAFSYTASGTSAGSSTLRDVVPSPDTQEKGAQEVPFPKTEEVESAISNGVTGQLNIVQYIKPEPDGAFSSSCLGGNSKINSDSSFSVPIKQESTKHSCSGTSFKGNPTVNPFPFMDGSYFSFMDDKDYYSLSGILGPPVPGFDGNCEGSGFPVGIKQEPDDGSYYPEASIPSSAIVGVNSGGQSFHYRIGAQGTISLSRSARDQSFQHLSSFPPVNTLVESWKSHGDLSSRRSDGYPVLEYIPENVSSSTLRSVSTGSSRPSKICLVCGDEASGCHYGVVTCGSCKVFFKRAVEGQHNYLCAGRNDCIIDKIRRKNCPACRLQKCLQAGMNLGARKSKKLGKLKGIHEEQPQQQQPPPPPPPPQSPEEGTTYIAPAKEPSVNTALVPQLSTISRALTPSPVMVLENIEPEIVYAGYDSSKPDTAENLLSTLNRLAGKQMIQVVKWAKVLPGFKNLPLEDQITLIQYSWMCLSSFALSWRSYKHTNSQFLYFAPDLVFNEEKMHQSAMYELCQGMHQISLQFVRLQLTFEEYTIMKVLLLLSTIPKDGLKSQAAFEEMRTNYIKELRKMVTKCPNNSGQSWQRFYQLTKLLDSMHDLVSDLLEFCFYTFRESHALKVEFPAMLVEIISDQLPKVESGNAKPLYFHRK
As to the kind of experiment: biochemical.
Description: Displacement of [3H]aldosterone from cytosolic human MR expressed in HEK293 cells after 16 hrs by scintillation counting

Series [2] in a line: Clearance in rat liver microsomes at 1 umol/L preincubated for 5 mins measured after 60 mins by UV analysis. It is filed as ADME, Microsome.
A short description of series [3]: Bioavailability in Sprague-Dawley rat at 3 mg/kg, iv and 10 mg/kg, po. Conditions: in vivo. It counts as ADME, organism-based.
Series [4] concerns the target T4, Mineralocorticoid receptor.
Description: Antagonist activity at human MR transfected in human COS1 cells after 1 day by luciferase reporter gene assay

Each structure is given as a SMILES string.

The text below walks through data of ChEMBL document CHEMBL1926625, “Identification of benzoxazin-3-one derivatives as novel, potent, and selective nonsteroidal mineralocorticoid receptor antagonists” (J Med Chem, 2011).

In general, IC50 refers to the concentration that inhibits the measured activity by half. Regarding `O=C1COc2ccc(C3=Nn4cnnc4SC3)cc2N1`, the IC50 was more than 10 µM at Glucocorticoid receptor, 1.6 µM at Progesterone receptor, more than 10 µM at Androgen receptor and 2 µM in series [1].

For the molecule `O=C1COc2ccc(C3=Nn4cnnc4SC3c3ccccc3)cc2N1` (stereo not given), the values for the IC50 at Glucocorticoid receptor, at Progesterone receptor and on Androgen receptor were 5.6 µM, more than 10 µM and 3.6 µM, respectively.

As to `O=C1COc2ccc(C3=Nn4cnnc4SC3c3ccccc3F)cc2N1` (stereo not given), the IC50 was 5.5 µM at Glucocorticoid receptor, more than 10 µM on Progesterone receptor, 5.9 µM on Androgen receptor and 0.6 µM in series [1].

As to `O=C1COc2ccc(C3=Nn4cnnc4SC3c3cccc(F)c3)cc2N1` (stereo not given), the IC50 at Glucocorticoid receptor is more than 10 µM; on Progesterone receptor it was more than 10 µM; at Androgen receptor, 4.7 µM; in series [1], 0.31 µM.

In general, microsomal CLint refers to the capacity of the preparation to metabolise the compound, expressed as a volume cleared per time. As to `O=C1COc2ccc(C3=Nn4cnnc4SC3c3ccc(F)cc3)cc2N1` (stereo not given), the IC50 on Glucocorticoid receptor was more than 10 µM; on Progesterone receptor it was more than 10 µM; on Androgen receptor, more than 10 µM; in series [1], 0.27 µM. In series [2], this molecule returned a microsomal CLint at 1 µM of 60 µL/min/mg.

Regarding `O=C1COc2ccc(C3=Nn4ccnc4SC3c3ccccc3)cc2N1` (stereo not given), the IC50 at Glucocorticoid receptor was 3.5 µM; at Progesterone receptor, 0.35 µM; on Androgen receptor it was 0.095 µM; in series [1] it was 0.036 µM.

In the case of `O=C1COc2ccc(C3=Nc4ccccc4SC3c3ccccc3)cc2N1` (stereo not given), the IC50 turned out to be 0.95 µM at Glucocorticoid receptor, 1.4 µM on Progesterone receptor, 1.2 µM at Androgen receptor and 0.069 µM in series [1].

`Cc1cc(-c2ccc3c(c2)NC(=O)CO3)n(-c2ccccc2)n1`: the IC50 on Glucocorticoid receptor was more than 10 µM; on Progesterone receptor it was more than 10 µM; on Androgen receptor it was more than 10 µM; in series [1] it was 5.3 µM.

For the molecule `Cc1cc(-c2ccc3c(c2)NC(=O)CO3)n(-c2ccc(F)cc2)n1`, the IC50 at Glucocorticoid receptor is 6.9 µM; on Progesterone receptor, more than 10 µM; on Androgen receptor, more than 10 µM; in series [1] it was 1.1 µM. Also, the microsomal CLint at 1 µM in series [2] was 164 µL/min/mg.

The term bioavailability denotes dose-corrected exposure relative to a reference, in per cent. On to `O=C1COc2ccc(-c3cc(C(F)(F)F)nn3-c3ccc(F)cc3)cc2N1`, for which the microsomal CLint at 1 µM in series [2] was 24 µL/min/mg. Half-maximal inhibition in series [1] (IC50) was put at 0.26 µM. Further, the bioavailability in series [3] is 28%.

Regarding `Cc1ccccc1-n1nc(C(F)(F)F)cc1-c1ccc2c(c1)NC(=O)CO2`, the IC50 on Glucocorticoid receptor was 2.5 µM; on Progesterone receptor, 4.9 µM; in series [4], 0.15 µM; on Androgen receptor, more than 10 µM; in series [1], 0.08 µM.

Regarding `Cc1cc(F)ccc1-n1nc(C(F)(F)F)cc1-c1cc(F)c2c(c1)NC(=O)CO2`, the IC50 on Glucocorticoid receptor was 1.7 µM; at Progesterone receptor, 1.8 µM; in series [4], 0.085 µM; on Androgen receptor it was more than 10 µM; in series [1], 0.076 µM.

Regarding `Cc1cc(F)ccc1-n1nc(C(F)(F)F)cc1-c1cc(Cl)c2c(c1)NC(=O)CO2`, the IC50 on Glucocorticoid receptor is 0.2 µM; on Progesterone receptor it was 0.93 µM; in series [4], 0.07 µM; on Androgen receptor, 4.5 µM; in series [1], 0.012 µM.

For the molecule `Cc1cc(F)ccc1-n1nc(C(F)(F)F)cc1-c1cc(C)c2c(c1)NC(=O)CO2`, the IC50 on Glucocorticoid receptor was 0.47 µM; on Progesterone receptor, 2.4 µM; in series [4], 0.015 µM; at Androgen receptor, more than 10 µM; in series [1], 0.021 µM.
